The source of these data is patent US20170209544A1, “A PEPTIDE THERAPY TO COUNTERACT INSULIN RESISTANCE AND TYPE 2 DIABETES” (The Regents of the University of California, priority 2014, published 2017).

One data set in a line: Heart function. To be noted: in vivo.
A further data set relates to peritoneal macrophages. The data set is described as follows: qPCR of inflammatory genes in cultured peritoneal macrophages. The class given is cell-based, mice. To be noted: LPS 100 ng/ml, 4 hr; both WT and Chga-KO macrophages. On the procedure: Peritoneal macrophages were isolated after thioglycollate (3% solution in water) stimulation as described. Isolated macrophages were cultured in DMEM with 10% FBS for 48 hours with daily medium changes. Cells were then serum-starved overnight in DMEM with low FBS (0.5%) and then exposed to saline, PST (100 nM), or LPS (100 ng/ml) for 4 hours. At the end of incubation, the cultures were subjected to RNA extraction.
RNA from tissues was extracted using a kit (RNeasy Plus, Qiagen, Valencia, Calif.). After DNase digestion, 200 ng of RNA was transcribed into cDNA in a 20-μl reaction using a High Capacity cDNA Archive kit and this cDNA was amplified. PCR (25-μl reactions) contained 5 μl of cDNA, 2×SYBR Green PCR Master Mix, and 400 nM of each primer. Differences in the threshold cycle number (ΔCt) between the target gene, the housekeeping gene Gapdh and the ribosomal protein gene 36B4 were used to calculate differences in expression. Primer sequences are provided below.
As shown in FIGS. 18A-18H, PST promotes macrophage inflammation and chemotaxis. Peritoneal macrophages were isolated from WT-NCD and KO-NCD after thioglycollate injection. After 4-hr exposure to saline, LPS (100 ng/ml) or PST (100 nM), RNAs were extracted and cDNAs were prepared for qPCR analyses of Chga (FIG. 18A, n=8), iNos (FIG. 18B, n=8), Tnfα (FIG. 18C, n=8), Mcp-1 (FIG. 18D, n=8), IL-6 (FIG. 18E, n=8), IL-12p40 (FIG. 18F, n=8) and iNos genes (FIG. 18G, n=8). (FIG. 18H) Effects of PST on chemotaxis of activated macrophages from NCD-fed C57BL/6J mice (n=5). “*” Denotes comparison between the indicated groups. “*”: P<0.05, “**”: p<0.01, “***”: p<0.001.
(Real-time PCR tracks product formation cycle by cycle.)

Where no end group is shown, it is not given here.

Regarding KGEQEHSQQKEEEEEMAVVPQGLFRG-NH2 [PSTv1], in “Heart function”, the “effects on heart function” value was “no adverse effects on heart function”.

Consider lipopolysaccharide [LPS], for which the “expression of iNos” value with peritoneal macrophages was roughly 100 fold.
